# Experimental data reported in patent publication US20210161997A1, “TREATING DISEASES VIA TARGETED MODULATION OF GENE SIGNALING NETWORKS” (Camp4 Therapeutics Corporation, priority 2018, published 2021).
# Where a name gives a salt, the structure may show the parent alone. Read-outs that look alike come from different tables or passages of the source.
# Columns and labels:
# Format in all cases: cell-based
# CPOX = test: RNA-seq of CPOX expression in compound-treated primary human hepatocytes
# Experimental: (§1) Human hepatocytes were obtained from two donors from Massachusetts General Hospital, namely MGH54 and MGH63, and one donor from Lonza, namely HUM4111B. Cryopreserved hepatocytes were cultured in plating media for 16 hours, transferred to maintenance media for 4 hours. Cultured on serum-free media for 2 hours, then a compound was added. The hepatocytes were maintained on the serum-free media for 16 hours prior to gene expression analysis. Primary human hepatocytes were stored in the vapor phase of a liquid nitrogen freezer (about −130° C.).
# (§2) Human hepatocytes cultured as described above were plated in 24-well format, adding 375,000 cells per well in a volume of 500 ul plating medium. Four hours before treatment, cells were washed with PBS and the medium was changed to either: fresh maintenance medium (complete) or modified maintenance medium.
# (§3) Compound stocks were prepared at 1000× final concentration and added in a 2-step dilution to the medium to reduce risk of a compound precipitating out of solution when added to the cells, and to ensure reasonable pipetting volumes. One at a time, each compound was first diluted 10-fold in warm (about 37° C.) modified maintenance medium (initial dilution=ID), mixed by vortexing, and the ID was diluted 100-fold into the cell culture (e.g. 5.1 ul into 1 well of a 24-well plate containing 0.5 mL medium). The plate was mixed by carefully swirling and after all wells were treated and returned to the incubator overnight. If desired, separate plates/wells were treated with vehicle-only controls and/or positive controls. If using multi-well plates, controls were included on each plate. After about 18 hours, cells were harvested for further analysis, e.g., ChIP-seq, RNA-seq, ATAC-seq, etc.
# (§4) This protocol is a modified version of the following protocols: MagMAX mirVana Total RNA Isolation Kit User Guide (Applied Biosystems #MAN0011131 Rev B.0), NEBNext Poly(A) mRNA Magnetic Isolation Module (E7490), and NEBNext Ultra Directional RNA Library Prep Kit for Illumina (E7420) (New England Biosystems #E74901).
# (§5) The MagMAX mirVana kit instructions (the section titled “Isolate RNA from cells” on pages 14-17) were used for isolation of total RNA from cells in culture. Two hundred μl of Lysis Binding Mix was used per well of the multiwell plate containing adherent cells (usually a 24-well plate).
# (§6) For mRNA isolation and library prep, the NEBNext Poly(A) mRNA Magnetic Isolation Module and Directional Prep kit was used. RNA isolated from cells above was quantified, and prepared in […] of each sample in 50 μl of nuclease-free water. This protocol may be run in microfuge tubes or in a 96-well plate.
# (§7) Standard QC were applied (read integrity, mapping statistics, library complexity, fragment bias) to remove unsatisfactory samples. […] Log 2 fold change and significance values were computed using PME count data (with replicates explicitly modeled versus pan-experiment controls), median ratio normalized, using maximum likelihood estimation rather than maximum a posteriori, and disabling the use of Cook's distance cutoff when determining acceptable adjusted p-values. […] RNA-seq signals were also normalized by read depth and visualized using the UCSC browser.
# (§8) To identify small molecules that modulate target gene expression, primary human hepatocytes were prepared as a monoculture, and at least one small molecule compound was applied to the cells.
# (§9) RNA-seq was performed to determine the effects of the compounds on the expression of the target genes in hepatocytes. Fold change was calculated by dividing the level of expression in the cell system that had been perturbed by the level of expression in an unperturbed system. Changes in expression having a p-value ≤0.05 were considered significant.
# Significance was defined as an FPKM ≥0.5 a log 2(fold change) ≥0.3, and a q-value of ≤0.05.
# APOL1 = test: RNA-seq of APOL1 expression in compound-treated primary human hepatocytes; settings: for mrna remaining at 10 µM: Homo sapiens, Hepatocyte, 16 h, read-out: APOL mRNA linear fold change
# Experimental: as §1, §2, §3, §4, §5, §6
# (§10) All pass filter reads from each sample were mapped against the human genome (assembly GRCh38/GCA_000001405.15 “no alt” analysis set merged with hs38d1/GCA_000786075.2) using two pass mapping via STAR version 2.5.3a (alignment parameters alignIntronMin=20; alignIntronMax=1000000; outFilterMismatchNmax=999; outFilterMismatchNoverLmax=0.05; outFilterType=BySJout; outFilterMultimapNmax=20; alignSJoverhangMin=8; alignSJDBoverhangMin=1; alignMatesGapMax=1000000) (Dobin et al., Bioinformatics (2012) 29(1):15-21). Genomic alignments were converted to transcriptome alignments based on reference transcript annotations from the Human GENCODE Gene Set release 24 (Harrow et al., Genome Res. (2012) 22(9): 1760-1774). Using unique and multimapped transcriptomic alignments, gene-level abundance estimates were computed using RSEM version 1.3.0 (Li and Dewey, BMC Bioinformatics (2011) 12:323) in a strand-aware manner, and including confidence interval sampling calculations, to arrive at posterior mean estimates (PME) of abundances (counts and normalized FPKM—fragments per kilobase of exon per million mapped fragments) from the underlying Bayesian model. Standard QC were applied (read integrity, mapping statistics, library complexity, fragment bias) to remove unsatisfactory samples.
# ANGPTL3 = test: RNA-seq of ANGPTL3 expression in compound-treated primary human hepatocytes; settings: additional compounds (Table 13), linear fold change
# Summary of the method: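 Cryopreserved primary human hepatocytes from three donors, plated at 375,000 cells/well, switched to complete or modified maintenance medium, then dosed with compound (stocks at 1000× final) for about 18 h. Poly(A) mRNA was sequenced directionally, mapped to GRCh38 with STAR, and gene-level abundance (counts, FPKM) estimated with RSEM against GENCODE 24.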
# FN1 = test: RNA-seq of FN1 expression in compound-treated primary human hepatocytes; settings: perturbed vs unperturbed, significance FPKM ≥1, log 2(fold change) ≥0.5, q-value ≤0.05
# Experimental: as §1, §2, §3, §4, §5, §6, §10
# LECT2 = test: RNA-seq of LECT2 expression in compound-treated primary human hepatocytes
# Experimental: as §1, §2, §3, §4, §5, §6, §7, §8, §9
# Significance was defined as an FPKM ≥1, a log 2(fold change) ≥0.5, and a q-value of ≤0.05 for all targets except for CPOX.
# SLC37A4 = test: RNA-seq of SLC37A4 expression in compound-treated primary human hepatocytes
# Experimental: as §1, §2, §3, §4, §5, §6, §10
# UGT1A1 = test: RNA-seq of UGT1A1 expression in compound-treated primary human hepatocytes
# Summary of the method: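 Cryopreserved primary human hepatocytes from three donors were plated in 24-well format, then treated with compound diluted from 1000× stocks in serum-free maintenance medium for about 16–18 h. Poly(A) RNA-seq log2 fold change was computed against vehicle/pan-experiment controls. Significance required FPKM ≥1, log2FC ≥0.5 and q ≤0.05.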
structure (smiles),measurement,setting,value
COc1cc(Nc2c(C#N)cnc3cc(OCCCN4CCN(C)CC4)c(OC)cc23)c(Cl)cc1Cl [Bosutinib],CPOX Fold change (Log2),CPOX,0.34 Log2
"CC1OC2(CS1)CN1CCC2CC1 (stereo not drawn) [CPD341_Cevimeline, Cevimeline]",mrna remaining at 10 µM,"APOL1; RNAseq, 10 uM dose (Table 20)",65.5%
"CC[C@@H](CO)NC(=O)[C@@H]1C=C2c3cccc4[nH]cc(c34)C[C@H]2N(C)C1 [CPD388_Methylergonovine, Methylergonovine]",mrna remaining at 10 µM,APOL1,64.2%
"Clc1ccc(C(c2ccccc2Cl)C(Cl)Cl)cc1 (stereo not drawn) [CPD446_Mitotane, Mitotane]",mrna remaining at 10 µM,"APOL1; RNAseq, 10 uM dose (Table 20)",65.5%
"C[C@]12C=CC(=O)C=C1CC[C@@H]1[C@@H]2[C@@H](O)C[C@@]2(C)[C@H]1CC[C@]2(O)C(=O)CO [CPD447_Prednisolone, Prednisolone]",mrna remaining at 10 µM,"APOL1; RNAseq, 10 uM dose (Table 20)",65.5%
"CC(C)C[C@H](NC(=O)[C@H](Cc1ccccc1)NC(=O)c1cnccn1)B(O)O [CPD569_Bortezomib (PS-341), Bortezomib]",mrna remaining at 10 µM,"APOL1; RNAseq, 10 uM dose (Table 20)",63.7%
C=C1/C(=C\C=C2/CCC[C@]3(C)[C@@H]([C@H](C)CCCC(C)(C)O)CC[C@@H]23)C[C@@H](O)C[C@@H]1O [Calcitriol],ANGPTL3-LINEAR FOLD CHANGE,ANGPTL3,0.483
same,FN1 Fold Change (Log2),FN1,−0.79 Log2
same,LECT2 Fold Change (Log2),LECT2,−1.82 Log2
[Cl][Co][Cl] [Cobalt chloride],SLC37A4 Fold Change (Log2),SLC37A4,1.09 Log2
same,CPOX Fold change (Log2),CPOX,0.49 Log2
C[C@]12C[C@H](O)[C@H]3[C@@H](CCC4=CC(=O)CC[C@@]43C)[C@@H]1CC[C@@H]2C(=O)CO [Corticosterone],SLC37A4 Fold Change (Log2),SLC37A4,0.73 Log2
same,CPOX Fold change (Log2),"CPOX; RNA-seq, primary human hepatocytes, significance FPKM ≥0.5, log 2(fold change) ≥0.3, q-value ≤0.05",0.36 Log2
same,UGT1A1 Fold Change (Log2),UGT1A1,0.86 Log2
C[C@@H](Oc1cc(-c2cnn(C3CCNCC3)c2)cnc1N)c1c(Cl)ccc(F)c1Cl [Crizotinib],APOL1 Fold Change (Log2),"APOL1; RNA-seq, primary human hepatocytes",−0.56 Log2
same,FN1 Fold Change (Log2),FN1,−1.45 Log2
same,UGT1A1 Fold Change (Log2),UGT1A1,1.18 Log2
CC(=O)N(O)CCCCCNC(=O)CCC(=O)N(O)CCCCCNC(=O)CCC(=O)N(O)CCCCCN [Deferoxamine mesylate],CPOX Fold change (Log2),CPOX,0.37 Log2
C[C@@H]1C[C@H]2[C@@H]3CCC4=CC(=O)C=C[C@]4(C)[C@@]3(F)[C@@H](O)C[C@]2(C)[C@@]1(O)C(=O)CO [Dexamethasone],SLC37A4 Fold Change (Log2),SLC37A4,0.66 Log2
O=Cc1c2[nH]c3ccccc3c2cc2[nH]c3ccccc3c12 [FICZ],ANGPTL3-LINEAR FOLD CHANGE,ANGPTL3,0.3231
same,CPOX Fold change (Log2),CPOX,0.44 Log2
same,UGT1A1 Fold Change (Log2),UGT1A1,2.62 Log2
O=C1NC(=O)/C(=C/c2ccc3nccc(-c4ccncc4)c3c2)S1 [GSK1059615],ANGPTL3-LINEAR FOLD CHANGE,ANGPTL3,0.1856
same,APOL mRNA linear fold change,"APOL1; RNAseq, 10 uM dose (Table 20)",0.5105
